According to patent US12421276B2 (priority 2016, dated 2025):
Where “and” joins values, the source holds several entries; their conditions need not be identical. Identical values can stand only once. Like-named read-outs stand apart in the source and are kept apart here. Where a SMILES comes first, the peptide text is derived from it. [ ]: non-standard residue; d: D form. The star is where a group is joined. ξ: configuration not given here. ξpY = NC(Cc1ccc(OP(=O)(O)O)cc1)C(=O)O; Ile(3ξ) = CCC(C)[C@H](N)C(=O)O; Hexanoyl = CCCCCC(=O)*; Ahx = NCCCCCC(=O)O

Legend:
[1] = format: in vivo, rat
Method: • 1. Eight (8) male JVC SD rats (purchased from Charles River Lab) were monitored daily for body condition and health status during the 3-5 days acclimation period. The rats were randomly assigned into […] (n=4). • 2. […] The dosed rats were individually placed into a metabolic cage, and have access to food and water at all times. The urine from each rat was collected daily from the metabolic cages, and kept in dry ice. • 4. At predose (0 min), 5 min, 15 min, 30 min, 1 hr, 2 hr, 8 hr, and 24 hr post dosing, approximately 200 ul blood samples were collected from each rat and transferred to EDTA tubes. • 5. The blood samples in EDTA vials were centrifuged at 4° C. and 6,000 rpm for 10 minutes to generate ˜100 μl of plasma per sample. Blood samples were processed as quickly as possible and remain no longer than 2 min at room temperature and no longer than 15 minutes at 4° C. prior to processing. • 6. All samples were transferred for bioanalytic assay using LCMS

Caco-2 cells = experiment: Caco-2 permeability study with or without P-gp inhibitor GF120918; conditions: for Abs. Quotient: (Papp A-B with inhibitor − without inhibitor)/Papp A-B with inhibitor; for Caco-2 Cells Permeability Recovery Rate: 1 hr, pH 7.4
Method: Buffer=HBSS, pH 7.4 with 5 mM HEPES
Caco-2 cell plates were obtained commercially and were maintained for 21 days at 37° C. with 5% CO2. Cells were washed with Hank's Balanced Salt Solution (HBSS) 30 min before starting the experiment. Test compound solutions were prepared by diluting from DMSO stock into HBSS buffer in the presence or absence of 10 μM of P-gp inhibitor GF120918. The final DMSO concentration is 0.2%. Prior to each experiment, cell monolayer integrity was verified by transendothelial electrical resistance (TEER). Transport experiment was initiated by adding test compounds to the apical (75 μL) side. Transport plates were incubated at 37° C. in a humidified incubator with 5% CO2. Samples were taken from the donor and acceptor compartments after 1 hr and analyzed by liquid chromatography with tandem mass spectrometry (LC/MS/MS).
Apparent permeability (Papp) values were calculated using the following equation: Papp=(dQ/dt)/A/C0
where dQ/dt is the initial rate of amount of test compound transported across cell monolayer, A is the surface area of the filter membrane, and C0 is the initial concentration of the test compound. C0 is calculated for each condition using a 4-point calibration curve.
Absorption quotient between the two assay conditions was calculated by the following equation:
Absorption quotient (AQ)=(Papp, A-B with inhibitor−Papp, A-B without inhibitor)/Papp, A-B with inhibitor where Papp, A-B with inhibitor and Papp, A-B without inhibitor represent the apparent permeability of test compound from the apical to basal side of the cellular monolayer in the presence and absence of 10 μM P-gp inhibitor GF120918, respectively.
All samples were analyzed on LC/MS/MS using an AB Sciex API 4000 instrument, coupled to a Shimadzu LC-20AD LC Pump system. Analytical samples were separated using a Waters Atlantis T3 dC18 reverse phase HPLC column (10 mm×2.1 mm) at a flow rate of 0.5 mL/min. The mobile phase consisted of 0.1% formic acid in water (solvent A) and 0.1% formic acid in acetonitrile (solvent B).

[2] = Metabolic stability in simulated gastric fluid (SGF), pH 1.2, with or without pepsin; format: in vitro ADME; conditions: 5 μM, 37° C.
Method: (§1) Metabolic Stability in SIF and SGF (Simulated Intestinal and Gastric Fluid)
Buffer 1=SGF without enzyme
Buffer 2=SGF with 0.32% pepsin
(§2) SIF was prepared freshly with 8.7 mM NaOH, 28.65 mM NaH2PO4, 105.85 mM NaCl, with a final pH of 6.8. SGF was prepared freshly with 34.2 mM NaCl, with a final pH of 1.2. Enzymes such as pepsin or pancreatin were added to some buffers. Human and rat plasma (K2 EDTA) were purchased from BioreclamationIVT.
(§3) Compounds were dissolved as 1.5 mM DMSO stocks. Compounds were transferred to SIF, SGF, or plasma at 5 μM on a 96-well deep well plate. After mixing, samples were transferred to several 96-well plates (25 μL/well), and incubated at 37° C. The extent of metabolism was calculated as the disappearance of the test compound, compared to the 0-min control reaction incubations. Candesartan Cilexetil and omeprazole were included as positive controls for SIF and SGF, respectively, to verify assay performance.
(§4) At each of the time points, 150 μL of quench solution (100% acetonitrile with 0.1% formic acid) with internal standard (bucetin for positive ESI mode and warfarin for negative ESI mode) was transferred to each well. Plates were sealed and centrifuged at 4° C. for 15 minutes at 4000 rpm. The supernatant was transferred to fresh plates for LC/MS/MS analysis.
(§5) Elution conditions are detailed in the table below.
(§6) Initial rates of the clearance of test compounds were calculated using linear regression of semi-log plot of % remaining of compounds versus time. The elimination rate constant (equals to −slope) of the linear regression was then used to determine t½ values.

[3] = Metabolic stability in simulated intestinal fluid (SIF), pH 6.8, with or without pancreatin; format: in vitro ADME; conditions: 5 μM, 37° C.
Method: as §1
Buffer 3=SIF without enzyme
Buffer 4=SIF with 1% pancreatin
as §2, §3, §4, §5, §6

[4] = Rat, PO, 10 mg/kg equiv., n = 4, analyte: Parent (BASE STRUCTURE)
[5] = Rat, PO, 10 mg/kg equiv., n = 4, analyte: Prodrug
[6] = rat, dosed as prodrug, 10 mg/kg equivalent of Base Structure, analyte Parent (Base Structure), Average
[7] = rat, dosed as prodrug, 10 mg/kg equivalent of Base Structure, analyte Parent (Base Structure), Combined (average ± std. dev.)
[8] = rat, dosed as prodrug, 10 mg/kg equivalent of Base Structure, analyte Parent (Base Structure), individual animals, 10 mg/kg
[9] = rat, dosed as prodrug, 10 mg/kg equivalent of Base Structure, analyte Prodrug, Average
[10] = rat, dosed as prodrug, 10 mg/kg equivalent of Base Structure, analyte Prodrug, Combined (average ± std. dev.)
[11] = rat, dosed as prodrug, 10 mg/kg equivalent of Base Structure, analyte Prodrug, individual animals, 10 mg/kg
[12] = +GF120918 (10 μM), 10 μM compound

SMILES: CCCCCC(=O)NC(Cc1ccc(OP(=O)(OCCN(C)C)OCCN(C)C)cc1)C(=O)NC(C(=O)NCCCCCC(N)=O)C(C)CC (stereo not drawn) [Compound A18]
- AUC0-24 [1, 4]: 4.1 ± 3.8 ng·h/mL
- AUC0-inf (ng · h/mL) [1, 4]: 6.8 ± 4^ ng · h/mL
- Cmax [1, 4]: 3.1 ± 2.5 ng/mL
- Tmax [1, 4]: 0.2 ± 0.1 h
- half-life [1, 4]: 3.5 ± 2.6 h
- AUC0-24 [1, 5]: 4.9 ± 2.6 ng·h/mL
- Cmax [1, 5]: 3.8 ± 0.1 ng/mL
- Tmax [1, 5]: 1.5 ± 0.7 h
- AUC 0-inf_obs [1, 6]: 6.838 ng·h/mL
- AUC 0-t [1, 6]: 4.14 ng·h/mL
- AUMC 0-inf_obs [1, 6]: 46.7 ng/ml * h^2
- Cl/F_obs [1, 6]: 1.944 (mg/kg)/(ng/ml)/h
- Cmax [1, 6]: 3.14 ng/mL
- Lambda_z [1, 6]: 0.523 h⁻¹
- MRT 0-inf_obs [1, 6]: 5.185 h
- Tlag [1, 6]: 0 h
- Tmax [1, 6]: 0.165 h
- Vz/F_obs [1, 6]: 6.707 (mg/kg)/(ng/ml)
- t1/2 [1, 6]: 3.49 h
- AUC 0-inf_obs [1, 7]: 6.8 ± 4 ng·h/mL
- AUC 0-t [1, 7]: 4.1 ± 3.8 ng·h/mL
- AUMC 0-inf_obs [1, 7]: 46.7 ± 47.2 ng/ml * h^2
- Cl/F_obs [1, 7]: 1.9 ± 1.1 (mg/kg)/(ng/ml)/h
- Cmax [1, 7]: 3.1 ± 2.5 ng/mL
- Lambda_z [1, 7]: 0.5 ± 0.7 h⁻¹
- MRT 0-inf_obs [1, 7]: 5.2 ± 3.9 h
- Tlag [1, 7]: 0 ± 0 h
- Tmax [1, 7]: 0.2 ± 0.1 h
- Vz/F_obs [1, 7]: 6.7 ± 3.2 (mg/kg)/(ng/ml)
- t1/2 [1, 7]: 3.5 ± 2.6 h
- Tlag ([1]; rat, dosed as prodrug, 10 mg/kg equivalent of Base Structure, analyte Parent (Base Structure), individual animals): 0 h
- AUC 0-inf_obs [1, 8]: 3.49 ng·h/mL and 3.404 ng·h/mL and 9.232 ng·h/mL and 11.23 ng·h/mL
- AUC 0-t [1, 8]: 1.664 ng·h/mL and 3.218 ng·h/mL and 1.903 ng·h/mL and 9.777 ng·h/mL
- AUMC 0-inf_obs [1, 8]: 10.68 ng/ml * h^2 and 2.586 ng/ml * h^2 and 76.05 ng/ml * h^2 and 97.48 ng/ml * h^2
- Cl/F_obs [1, 8]: 2.866 (mg/kg)/(ng/ml)/h and 2.938 (mg/kg)/(ng/ml)/h and 1.083 (mg/kg)/(ng/ml)/h and 0.8908 (mg/kg)/(ng/ml)/h
- Cmax [1, 8]: 1.3 ng/mL and 3.37 ng/mL and 1.27 ng/mL and 6.62 ng/mL
- Lambda_z [1, 8]: 0.3303 h⁻¹ and 1.518 h⁻¹ and 0.1231 h⁻¹ and 0.1201 h⁻¹
- MRT 0-inf_obs [1, 8]: 3.06 h and 0.7598 h and 8.238 h and 8.683 h
- Tmax [1, 8]: 0.25 h (2×) and 0.08 h (2×)
- Vz/F_obs [1, 8]: 8.676 (mg/kg)/(ng/ml) and 1.935 (mg/kg)/(ng/ml) and 8.802 (mg/kg)/(ng/ml) and 7.417 (mg/kg)/(ng/ml)
- t1/2 [1, 8]: 2.099 h and 0.4565 h and 5.632 h and 5.771 h
- AUC 0-t [1, 9]: 4.949 ng·h/mL
- Cmax [1, 9]: 3.76 ng/mL
- Tlag [1, 9]: 0 h
- Tmax [1, 9]: 1.5 h
- AUC 0-t [1, 10]: 4.9 ± 2.6 ng·h/mL
- Cmax [1, 10]: 3.8 ± 0.1 ng/mL
- Tlag [1, 10]: 0 ± 0 h
- Tmax [1, 10]: 1.5 ± 0.7 h
- Tlag ([1]; rat, dosed as prodrug, 10 mg/kg equivalent of Base Structure, analyte Prodrug, individual animals): 0 h
- AUC 0-t [1, 11]: 6.8 ng·h/mL and 3.099 ng·h/mL
- Cmax [1, 11]: 3.84 ng/mL and 3.68 ng/mL
- Tmax [1, 11]: 2 h and 1 h
- Abs. Quotient (Caco-2 cells): 0.54
- Caco-2 Cells Permeability Recovery Rate (Caco-2 cells; [12]): 90%
- Caco-2 Cells Permeability Recovery Rate (Caco-2 cells; −GF120918, 10 μM compound): 48%
- SGF Stability (pH 1.2) Half-Life (min) ([2]; +Pepsin (0.32%)): 46.4 min
- SGF Stability (pH 1.2) 0 min ([2]; +Pepsin (0.32%)): 100%
- SGF Stability (pH 1.2) 60 min ([2]; +Pepsin (0.32%)): 52%
- SGF Stability (pH 1.2) 120 min ([2]; +Pepsin (0.32%)): 17%
- SGF Stability (pH 1.2) 240 min ([2]; +Pepsin (0.32%)): 18%
- SGF Stability (pH 1.2) Half-Life (min) ([2]; −Pepsin): 42.6 min
- SGF Stability (pH 1.2) 0 min ([2]; −Pepsin): 100%
- SGF Stability (pH 1.2) 60 min ([2]; −Pepsin): 51%
- SGF Stability (pH 1.2) 120 min ([2]; −Pepsin): 14%
- SGF Stability (pH 1.2) 240 min ([2]; −Pepsin): 15%
- SIF Stability (pH 6.8) Half-Life (min) ([3]; +Pancreatin (1%)): 39.4 min
- SIF Stability (pH 6.8) 0 min ([3]; +Pancreatin (1%)): 100%
- SIF Stability (pH 6.8) 60 min ([3]; +Pancreatin (1%)): 40%
- SIF Stability (pH 6.8) 120 min ([3]; +Pancreatin (1%)): 12%
- SIF Stability (pH 6.8) 240 min ([3]; +Pancreatin (1%)): 25%
- SIF Stability (pH 6.8) Half-Life (min) ([3]; −Pancreatin): 30.2 min
- SIF Stability (pH 6.8) 0 min ([3]; −Pancreatin): 100%
- SIF Stability (pH 6.8) 60 min ([3]; −Pancreatin): 25%
- SIF Stability (pH 6.8) 120 min ([3]; −Pancreatin): 17%
- SIF Stability (pH 6.8) 240 min ([3]; −Pancreatin): 8%

SMILES: CCCCCC(=O)NC(Cc1ccc(OP(=O)(O)O)cc1)C(=O)N[C@H](C(=O)NCCCCCC(N)=O)C(C)CC.N.N (stereo partly drawn) [Compound A29] (Hexanoyl-[ξpY]-[Ile(3ξ)]-[Ahx]-NH2)
- AUC0-24 [1, 4]: 35.9 ± 27.6 ng·h/mL
- AUC0-inf [1, 4]: 48.6 ± 26.5 ng·h/mL
- Cmax [1, 4]: 39.7 ± 74.2 ng/mL
- Tmax (h) [1, 4]: 2.1 ± 4^ h
- half-life [1, 4]: 15.7 ± 14.3 h
- Tmax [1, 5]: 0 h
- Abs. Quotient (Caco-2 cells): 0.83
- Caco-2 Cells Permeability Recovery Rate (Caco-2 cells; [12]): 76%
- Caco-2 Cells Permeability Recovery Rate (Caco-2 cells; −GF120918, 10 μM compound): 86%
- SGF Stability (pH 1.2) Half-Life (min) ([2]; +Pepsin (0.32%)): 225.0 min
- SGF Stability (pH 1.2) 0 min ([2]; +Pepsin (0.32%)): 100%
- SGF Stability (pH 1.2) 60 min ([2]; +Pepsin (0.32%)): 86%
- SGF Stability (pH 1.2) 120 min ([2]; +Pepsin (0.32%)): 63%
- SGF Stability (pH 1.2) 240 min ([2]; +Pepsin (0.32%)): 49%
- SGF Stability (pH 1.2) Half-Life (min) ([2]; −Pepsin): Neg.
- SGF Stability (pH 1.2) 0 min ([2]; −Pepsin): 100%
- SGF Stability (pH 1.2) 60 min ([2]; −Pepsin): 117%
- SGF Stability (pH 1.2) 120 min ([2]; −Pepsin): 129%
- SGF Stability (pH 1.2) 240 min ([2]; −Pepsin): 123%
- SIF Stability (pH 6.8) Half-Life (min) ([3]; +Pancreatin (1%)): Neg.
- SIF Stability (pH 6.8) 0 min ([3]; +Pancreatin (1%)): 100%
- SIF Stability (pH 6.8) 60 min ([3]; +Pancreatin (1%)): 94%
- SIF Stability (pH 6.8) 120 min ([3]; +Pancreatin (1%)): 98%
- SIF Stability (pH 6.8) 240 min ([3]; +Pancreatin (1%)): 104%
- SIF Stability (pH 6.8) Half-Life (min) ([3]; −Pancreatin): Neg.
- SIF Stability (pH 6.8) 0 min ([3]; −Pancreatin): 100%
- SIF Stability (pH 6.8) 60 min ([3]; −Pancreatin): 96%
- SIF Stability (pH 6.8) 120 min ([3]; −Pancreatin): 97%
- SIF Stability (pH 6.8) 240 min ([3]; −Pancreatin): 103%
